According to EP0396400A1, “Microbial transformation product” (Merck & Co., Inc., priority 1989, dated 1990):

Test system: mouse T lymphocytes
Assay: T-cell proliferation assay (ionomycin plus PMA induced T-cell stimulation, tritiated thymidine uptake)
Format: cell-based, C57B1/6 mice
Conditions: T-lymphocyte, 10 ng/ml, standard
Description: The principle of this assay is to measure the proliferation of mouse T lymphocytes stimulated with the combination of ionomycin plus PMA. A positive sample in this assay will inhibit T-cell proliferation, as indicated by reduced tritiated thymidine uptake.
Cells were pelleted by centrifugation at 1500 rpm for 8 minutes. Contaminating red cells were removed by treating the pellet with ammonium chloride lysing buffer (GIBCO) for 2 minutes at 4°C. Cold medium was added and cells were again centrifuged at 1500 rpm for 8 minutes. T lymphocytes were then isolated by separation of the cell suspension on nylon wool columns as follows: Nylon wool columns were prepared by packing approximately 4 grams of washed and dried nylon wool into 20 ml plastic syringes. The columns were sterilized by autoclaving at 250°F for 30 minutes. […]
The cell suspension was immediately distributed into 96 well flat-bottom microculture plates (Costar) at 200 µl/well. […] The proliferation of T lymphocytes was assessed by measurement of tritiated thymidine incorporation. […] Radioactivity of filter discs corresponding to individual wells was measured by standard liquid scintillation counting methods (Betacounter). Mean counts per minute of replicate wells were calculated and the results expressed as percent inhibition of tritiated thymidine uptake (proliferation) as follows: [formula]

Q: How did the inhibition at 0.01 µg/mL turn out when `C=CC[C@@H]1/C=C(\C)C[C@H](C)C[C@H](OC)[C@H]2O[C@@](O)(C(=O)C(=O)N3CCCC[C@H]3C(=O)O[C@H](/C(C)=C/[C@@H]3CC[C@@H](O)[C@H](OC)C3)[C@H](C)[C@@H](O)CC1=O)[C@H](C)C[C@@H]2OC` [L-679,934] was run?
A: 99%
